Measured values published in US20250212681A1, “Light-Emitting Device” (Semiconductor Energy Laboratory Co., Ltd., priority 2023, published 2025).

Experiment: Solubility test of PrdP2Phen by LC-MS analysis
Assay type: physicochemical
Conditions: 1 mg in 1 mL of water, ultrasonic waves 5 minutes, filtrate analysed by LC-MS; one atmosphere, room temperature
Experimental: Next, a solubility test of PrdP2Phen was performed. Note that the solubility test was conducted at a pressure of one atmosphere at room temperature (RT).
In the LC-MS analysis, liquid chromatography (LC) separation was carried out with ACQUITY UPLC (manufactured by Waters Corporation), and MS analysis (mass spectrometry) was carried out with Xevo G2 Tof MS (manufactured by Waters Corporation). Acquity UPLC BEH C8 (2.1×100 mm, 1.7 μm) was used as a column for the LC separation. Acetonitrile was used for Mobile Phase A and a 0.1% aqueous solution of formic acid was used for Mobile Phase B. The injection amount of the sample was 5.0 μL. Note that in the analysis, the wavelength of a photodiode array detector was set to 263 nm±1 nm.
In a 5-mL sample bottle, 1 mg of PrdP2Phen was put and 1 mL of water was added thereto. This mixture was irradiated with ultrasonic waves for 5 minutes. This mixture was filtered through a membrane filter to remove the solid, and the resulting filtrate was diluted by five times with acetonitrile. The obtained solution was subjected to LC-MS analysis.

solubility in water: extremely low solubility in water
SMILES: c1cc(-c2ccc(N3CCCC3)cc2)c2ccc3c(-c4ccc(N5CCCC5)cc4)ccnc3c2n1 [PrdP2Phen, 4,7-bis[4-(1-pyrrolidinyl)phenyl]-1,10-phenanthroline]
